From patent US4404201A, “Cephalosporins” (Warner-Lambert Company, priority 1981, dated 1983)

Tests used:
Type in all cases: cell-based
[1] = test system: Prot Vulg.; experiment: Minimal Inhibitory Concentration, Prot Vulg.; conditions: sodium salt
[2] = test system: E. Coli Brig; experiment: Minimal Inhibitory Concentration, E. Coli Brig; conditions: Escherichia coli, sodium salt
[3] = test system: Pseudomonas UI 18; experiment: Minimal Inhibitory Concentration, Pseudomonas UI 18; conditions: UI18, sodium salt
[4] = test system: Serr. Mar. IMM 16; experiment: Minimal Inhibitory Concentration, Serr. Mar. IMM 16; conditions: sodium salt
[5] = test system: Pseudomonas BRK 12-4-4; experiment: Minimal Inhibitory Concentration, Pseudomonas BRK 12-4-4; conditions: BRK1244, sodium salt
[6] = test system: Staph S 18713; experiment: Minimal Inhibitory Concentration, Staph S 18713; conditions: sodium salt
[7] = test system: E. Coli Vogel; experiment: Minimal Inhibitory Concentration, E. Coli Vogel; conditions: Escherichia coli, sodium salt
[8] = test system: Entero Cloac. IM 11; experiment: Minimal Inhibitory Concentration, Entero Cloac. IM 11; conditions: sodium salt
[9] = test system: Pseudomonas #28; experiment: Minimal Inhibitory Concentration, Pseudomonas #28; conditions: sodium salt
[10] = test system: Staph UC76; experiment: Minimal Inhibitory Concentration, Staph UC76; conditions: sodium salt
[11] = test system: Strep. fec. MGH 2; experiment: Minimal Inhibitory Concentration, Strep. fec. MGH 2; conditions: sodium salt
[12] = test system: Klebs. Pneum. MGH 2; experiment: Minimal Inhibitory Concentration, Klebs. Pneum. MGH 2; conditions: sodium salt

Row | Compound | MIC [1] [µg/mL] | MIC [2] [µg/mL] | MIC [3] [µg/mL] | MIC [4] [µg/mL] | MIC [5] [µg/mL] | MIC [6] [µg/mL] | MIC [7] [µg/mL] | MIC [8] [µg/mL] | MIC [9] [µg/mL] | MIC [10] [µg/mL] | MIC [11] [µg/mL] | MIC [12] [µg/mL]
1 | CC(=O)N[C@@H](C)C(=O)Nc1ccc2c(=O)c(C(=O)N[C@@H](C(=O)NC3C(=O)N4C(C(=O)O)=C(CSc5nnnn5CS(=O)(=O)O)CSC34)c3ccccc3)c[nH]c2c1 (stereo partly drawn) [Example 1, N-[7-[[L-2-(Acetylamino)-1-oxopropyl]amino]-1,4-dihydro-4-oxo-3-quinolinylcarbonyl]-7-[D-2-amino-2-phenylacetamido]-3-[[(1-sulfomethyl-1H-tetrazol-5-yl)thio]methyl]-3-cephem-4-carboxylic acid] | 0.8 | > 50 | 3.1 | 3.2 | 6.3 | 12.5 | 0.8 | 6.3 | 3.1 | 6.3 | > 50 | 0.8
2 | CC(=O)N[C@@H](C)C(=O)Nc1ccc2c(=O)c(C(=O)N[C@@H](C(=O)NC3C(=O)N4C(C(=O)O)=C(CSc5nnnn5C)CSC34)c3ccc(O)cc3)c[nH]c2c1 (stereo partly drawn) [Example 2, N-[7-[[L-2-(Acetylamino)-1-oxopropyl]amino]-1,4-dihydro-4-oxo-3-quinolinylcarbonyl]-7-[D-2-amino-2-(4-hydroxyphenyl)acetamido]-3-[[(1-methyl-1H-tetrazol-5-yl)thio]methyl]-3-cephem-4-carboxylic acid] | 3.1 | > 50 | 6.3 | 0.3 | 3.1 | 6.3 | 0.4 | 3.1 | 3.1 | 3.1 | 25 | 0.4
3 | CC(=O)N[C@@H](C)C(=O)Nc1ccc2c(=O)c(C(=O)N[C@@H](C(=O)NC3C(=O)N4C(C(=O)O)=C(COC(C)=O)CSC34)c3ccc(O)cc3)c[nH]c2c1 (stereo partly drawn) [Example 3, N-[7-[[L-2-(Acetylamino)-1-oxopropyl]amino]-1,4-dihydro-4-oxo-3-quinolinylcarbonyl]-7-[D-2-amino-2-(4-hydroxyphenyl)acetamido]-3-acetoxymethyl-3-cephem-4-carboxylic acid] | 6.3 | 12.5 | 3.1 | 50 | 6.3 | 6.3 | 1.6 | 12.5 | 3.1 | 3.1 | 25 | 1.6
4 | CC(=O)N[C@@H](CCC(N)=O)C(=O)Nc1ccc2c(=O)c(C(=O)N[C@@H](C(=O)NC3C(=O)N4C(C(=O)O)=C(COC(C)=O)CSC34)c3ccc(O)cc3)c[nH]c2c1 (stereo partly drawn) [Example 4, N-[7-[[L-2-(Acetylamino)-5-amino-1,5-dioxopentyl]amino]-1,4-dihydro-4-oxo-3-quinolinylcarbonyl]-7-[D-2-amino-2-(4-hydroxyphenyl)acetamido]-3-acetoxymethyl-3-cephem-4-carboxylic acid] | 6.3 | > 50 | 12.5 | > 50 | 6.3 | 6.3 | 0.8 | 12.5 | 3.1 | 3.1 | 25 | 3.1
5 | CC(=O)N[C@@H](CCC(N)=O)C(=O)Nc1ccc2c(=O)c(C(=O)N[C@@H](C(=O)NC3C(=O)N4C(C(=O)O)=C(CSc5nnnn5C)CSC34)c3ccc(O)cc3)c[nH]c2c1 (stereo partly drawn) [Example 5, N-[7-[[L-2-(Acetylamino)-5-amino-1,5-dioxopentyl]amino]-1,4-dihydro-4-oxo-3-quinolinylcarbonyl]-7-[D-2-amino-2-(4-hydroxyphenyl)acetamido]-3-[[(1-methyl-1H-tetrazol-5-yl)thio]methyl]-3-cephem-4-carboxylic acid] | 3.1 | > 50 | 6.3 | 6.3 | 6.3 | 6.3 | 0.4 | 3.1 | 3.1 | 3.1 | 25 | 0.8
6 | Cn1nnnc1SCC1=C(C(=O)O)N2C(=O)C(NC(=O)[C@H](NC(=O)c3c[nH]c4cc(NC(=O)[C@@H]5CCC(=O)N5)ccc4c3=O)c3ccccc3)C2SC1 (stereo partly drawn) [Example 6, N-[1,4-Dihydro-4-oxo-7-[[(L-5-oxo-2-pyrrolidinyl)carbonyl]amino]-3-quinolinylcarbonyl]-7-[D-2-amino-2-phenylacetamido]-3-[[(1-methyl-1H-tetrazol-5-yl)thio]methyl]-3-cephem-4-carboxylic acid] | 6.3 | 6.3 | 12.5 | 25 | 12.5 | 3.1 | 0.8 | 6.3 | 6.3 | 0.8 |  | 1.6
7 | CC(=O)N[C@@H](C)C(=O)Nc1ccc2[nH]cc(C(=O)N[C@@H](C(=O)NC3C(=O)N4C(C(=O)O)=C(CSc5nnnn5C)CSC34)c3ccccc3)c(=O)c2c1 (stereo partly drawn) [Example 7, N-[6-[[L-2-(Acetylamino)-1-oxopropyl]amino]-1,4-dihydro-4-oxo-3-quinolinylcarbonyl]-7-[D-2-amino-2-phenylacetamido]-3-[[(1-methyl-1H-tetrazol-5-yl)thio]methyl]-3-cephem-4-carboxylic acid] | 3.1 | 12.5 | 6.3 | 25 | 12.5 | 6.3 | 1.6 | 12.5 | 6.3 | 1.6 |  | 3.1
8 | CC(=O)N[C@@H](C)C(=O)Nc1ccc2[nH]c(=O)c(C(=O)N[C@@H](C(=O)NC3C(=O)N4C(C(=O)O)=C(COC(C)=O)CSC34)c3ccc(O)cc3)cc2c1 (stereo partly drawn) [Example 8, N-[6-[[L-2-(Acetylamino)-1-oxopropyl]amino]-1,2-dihydro-2-oxo-3-quinolinylcarbonyl]-7-[D-2-amino-2-(4-hydroxyphenyl)acetamido]-3-acetoxymethyl-3-cephem-4-carboxylic acid] | 25 | 50 | 3.1 | > 50 | 6.3 | 6.3 | 6.3 | 25 | 3.1 | 3.1 |  | 25
